Test results reported in paper PMC5421877, “SOCS3 inhibits the pathological effects of IL-22 in non-melanoma skin tumor-derived keratinocytes” (Oncotarget, 2017).

Assays:
CAL33 cells = test: Scratch assay (migration), CAL33; assay type: cell-based; settings: CAL33; 40 μM peptide, PD98059 20 μM or S3I-201 10 μM; IL-22 50 ng/ml, 24 h
Experimental: (§1) Figure 6 IL-22-induced proliferation and migration of healthy and transformed keratinocytes is counteracted by KIR-ESS peptide (A) Healthy KC, CAL27 and CAL33 cultures were plated in 96-well plates in quadruplicate for each condition. After 1 day, cells were pre-treated or not with Ctrl1 or KIR-ESS peptides (40 μM), or S31-201 ([…]) and PD98059 ([…]) chemical inhibitors, and, then, stimulated or not with 50 ng/ml of IL-22. Data relative to 48-h treatment are shown and expressed as the values of fluorescence intensity obtained from untreated and IL-22-treated ± SD. Three independent experiments were performed. *p < 0.01. (B) Scratch assays were carried out on healthy or SCC-lines, pre-incubated with mitomycin C (5 mg/ml), pre-treated with Ctrl1 or KIR-ESS peptides (40 μM), or S31-201 ([…]) or PD98059 ([…]) chemical inhibitors, and, then, stimulated or not with IL-22 for 24 h. Microscopic images were taken immediately after and 24 h after wound induction on confluent cell layers. Initial scratches (0 h) are dashed blank. (C) Cell-free area was measured and indicated as residual wound. Data are reported as healed wound (gray area of bars) vs residual wound (white area of bars) which a value of 100% was given. *p < 0.01.
(§2) Cultured keratinocytes and SCC cell lines were grown at 100% confluence on type IV collagen (20 μg/ml), and then incubated with mitomycin C (5 mg/ml) (Sigma-Aldrich) for 1 h. Cell monolayers were scratched with the tip of a p-200 pipette to create uniform cell-free zones, and, then, pre-treated with appropriate concentrations of SOCS3 mimetic or control peptides, or with 10 μM STAT3 (S3I-201, Santa Cruz) and 20 μM Erk1/2 (PD98059, Calbiochem) inhibitors for 1 h, before treating by 50 ng/ml of IL-22. Microscopy pictures were taken with a digital camera at different time points following IL-22 treatment. The residual gap between migrating keratinocytes was measured with a computer-assisted image analysis system (Axiovision; Zeiss, Oberkochen, Germany), and expressed as percentage of the initial scratched area.

CAL27 cells = test: Scratch assay (migration), CAL27; assay type: cell-based; settings: 24 h
Experimental: as §1, §2

healthy keratinocytes = test: CyQUANT proliferation assay, healthy keratinocytes; assay type: cell-based, human; settings: healthy KC; PD98059 20 μM or S3I-201 10 μM, 48 h
Experimental: (§3) Figure 6 IL-22-induced proliferation and migration of healthy and transformed keratinocytes is counteracted by KIR-ESS peptide (A) Healthy KC, CAL27 and CAL33 cultures were plated in 96-well plates in quadruplicate for each condition. After 1 day, cells were pre-treated or not with Ctrl1 or KIR-ESS peptides (40 μM), or S31-201 ([…]) and PD98059 ([…]) chemical inhibitors, and, then, stimulated or not with 50 ng/ml of IL-22. Data relative to 48-h treatment are shown and expressed as the values of fluorescence intensity obtained from untreated and IL-22-treated ± SD. Three independent experiments were performed. *p < 0.01. […] (C) Cell-free area was measured and indicated as residual wound. […]
(§4) SOCS1- and SOCS3 stably transfected keratinocytes or cultured keratinocytes previously transfected with SOCS3 or control siRNA were seeded in 96-well plates (1.5–2.0 × 10^4 cells/well), and, the day after, starved in medium without serum. At 60% confluence, cells were treated with 75 ng/ml of IL-22 for 3 days, stained with 0.5% crystal violet (Bio-Rad, Hercules, CA, USA), and then analyzed in an ELISA reader (model 3550 UV ELISA reader; Bio-Rad). […] After 1-h pre-incubation, cells were treated with IL-22 or left unstimulated, cultured for other 24, 48 and 72 h, and the number of viable cells determined by CyQUANT Cell Proliferation Assay, accordingly to manufacture's protocol. […]

[1] = test system: SCC-cell lines (CAL27 and CAL33); test: CyQUANT proliferation assay, SCC-cell lines; assay type: cell-based; settings: PD98059 20 μM or S3I-201 10 μM, 48 h
Experimental: as §3, §4

[2] = test system: SOCS1 expression in keratinocytes and SCC/BCC lines; test: SOCS1 mRNA and protein induction; assay type: cell-based; settings: all cell lines, 3 h mRNA, 6 h protein
Experimental: (§5) Figure 4 SOCS3 and SOCS1 are poorly expressed in the epidermis of NMSC lesions and are not induced in transformed keratinocytes by IL-22 (A) Immunohistochemistry for SOCS3 and SOCS1 (red staining) was performed respectively on frozen or paraffin-embedded sections from biopsies of healthy skin (i), NLS (ii, iii) and LS (iv, v) areas of BCC and SCC, specimens. Psoriatic skin biopsies were also analyzed (vi). Sections were counterstained with Mayer's H&E and were visually evaluated by an pathologist experienced in dermatology. One out of four representative staining is shown. Scale bars, 50 mm. (B) Graphs show SOCS3 and SOCS1 mRNA levels which were detected by real-time PCR analysis in cultured SCC (CAL27 and CAL33) and BCC (M77015) skin tumor lines left untreated or stimulated with IL-22 or IFN-γ for 3 h and normalized for β-actin mRNA expression levels. All data were obtained from three independent experiments. […] SOCS1 was detected by IP using a specific anti-SOCS1 Ab, whereas SOCS3 by WB with an anti-SOCS3 Ab. […] Densitometric intensity (D.I.) of SOCS1 or SOCS3/β-actin was calculated from three independent experiments and numerically expressed as D. I. Ratio. *p < 0.01; **p < 0.05. […] SOCS3 and phospho-Tyr STAT3 levels were detected by WB and normalized to β-actin levels. […]

[3] = test system: SOCS3 expression in healthy keratinocytes; test: SOCS3 mRNA and protein induction in healthy keratinocytes; assay type: cell-based, human; settings: healthy keratinocytes, 3 h mRNA, 6 h protein
Experimental: Figure 1 IL-22 induces SOCS3, which limits STAT3 and Erk1/2 activation (A) Keratinocyte cultures (n = 3) were stimulated with IL-22 or not for 10 min and protein lysates were subjected to immunoprecipitation and WB analyses for basal and phospho-IL-22R1, Tyk2 or Jak1. (B) WB of time-course experiments were performed on keratinocyte cultures (n = 3) to evaluate basal STAT3, Erk1/2 and MEK or phosphor-STAT3 (Tyr705 and Ser 727), phosphor-Erk1/2 and phospho-MEK. Anti-β-actin Ab was used to normalize sample loading. (C) SOCS mRNA and protein levels were detected by real-time PCR or WB analyses in cultured keratinocytes prepared from healthy skin (n = 3) left untreated or stimulated with IL-22 for the indicated time periods and normalized with β-actin values. (D) HaCaT cells stably transfected with myc-tagged SOCS1 (n = 4), SOCS2 (n = 2) and SOCS3 (n = 4) genes or control plasmids (mock, n = 3) were left untreated or stimulated with IL-22 for 15 min or 3 h and lysates subjected to WB with anti-phospho STAT3 (Tyr705), -phospho STAT3 (Ser727), -STAT3, -phospho Erk, -Erk, -c-myc and -β-actin Abs, as indicated. (E) Keratinocyte cultures were transiently transfected with siRNA specific for SOCS3 or control siRNA (NC). After 48-h transfection, cells were stimulated with IL-22 or not for the indicated time periods. In RNA interference experiments, data were obtained by three independent experiments, and SOCS3 depletion was assessed by real-time PCR and WB. […] Data are expressed as ratio of densitometric intensity (D. I.) of phosphorylated and unphosphorylated STAT3 and Erk1/2 proteins. p < 0.05 (*) values were considered significant.
as §5, with “One out of four representative staining is shown. Scale bars, 50 mm.” left out, “levels.” for “levels. All data were obtained from three independent experiments.”

[4] = test system: SOCS3 expression in SCC and BCC skin tumor lines; test: SOCS3 mRNA and protein induction in SCC or BCC tumor cells; assay type: cell-based; settings: SCC (CAL27, CAL33) and BCC (M77015) lines, 3 h mRNA, 6 h protein
Experimental: as §5

Compound	wound closure, IL-22-treated (CAL33 cells)	wound closure / migration, resting cells (CAL27 cells; CAL27, without IL-22, 40 μM peptide or S31-201 10 μM)	wound closure, IL-22-treated (CAL27 cells; CAL27, 40 μM peptide, PD98059 20 μM or S3I-201 10 μM, IL-22 50 ng/ml)	proliferation (effect relative to KIR-ESS) (healthy keratinocytes)	proliferation (effect relative to KIR-ESS) [1]	SOCS1 mRNA and protein expression [2]	SOCS3 mRNA and protein expression [3]	SOCS3 mRNA and protein expression [4]
Cc1ccc(S(=O)(=O)OCC(=O)Nc2ccc(C(=O)O)c(O)c2)cc1 [S3I-201]	effect similar to those obtained with the chemical Erk1/2 and STAT3 inhibitors	efficacious in inhibiting migration of CAL27 cells	effect similar to those obtained with the chemical Erk1/2 and STAT3 inhibitors	KIR-ESS effect was similar to that observed in all healthy and transformed keratinocyte cultures	KIR-ESS effect was similar to that observed in all healthy and transformed keratinocyte cultures			
IFN-γ: cytokine stimulus, R&D Systems						significantly up-regulated by IFN-γ in all cell lines both at transcriptional and protein level, with the exception of SOCS1 protein in the BCC lines	significantly up-regulated by IFN-γ in all cell lines	significantly up-regulated by IFN-γ in all cell lines
